Results as given in patent US8658791B2, “2-substituted-6-amino-5-alkyl, alkenyl or alkynyl-4-pyrimidinecarboxylic acids and 6-substituted-4-amino-3-alkyl, alkenyl or alkynyl picolinic acids and their use as herbicides” (Dow AgroSciences, LLC, priority 2007, dated 2014).

Experiments:
Format in all cases: in vivo
[1] = tested on: velvetleaf (Abutilon theophrasti); assay: General postemergence herbicidal activity, ABUTH; details: Abutilon theophrasti, post-emergence, 336 h, postemergence spray, visual score after 14 days, 0 = no injury, 100 = complete kill, read-out: Post-emergent Weed Control ABUTH; for pest or weed control at 280 g/ha: 280 g ai/ha; for pest or weed control at 140 g/ha: 140 g ai/ha
Method: (§1) Seeds or nutlets of the desired test plant species were planted in Sun Gro MetroMix® 306 planting mixture, which typically has a pH of 6.0 to 6.8 and an organic matter content of about 30 percent, in plastic pots with a surface area of 103 square centimeters. When required to ensure good germination and healthy plants, a fungicide treatment and/or other chemical or physical treatment was applied. The plants were grown for 7-21 days in a greenhouse with an approximate 15 hour photoperiod which was maintained at about 23-29° C. during the day and 22-28° C. during the night. Nutrients and water were added on a regular basis and supplemental lighting was provided with overhead metal halide 1000-Watt lamps as necessary. The plants were employed for testing when they reached the first or second true leaf stage.
(§2) A weighed amount, determined by the highest rate to be tested, of each test compound was placed in a 25 mL glass vial and was dissolved in 4 mL of a 97:3 v/v (volume/volume) mixture of acetone and dimethyl sulfoxide (DMSO) to obtain concentrated stock solutions. […] The concentrated stock solutions obtained were diluted with 20 mL of an aqueous mixture containing acetone, water, isopropyl alcohol, DMSO, Atplus 411F crop oil concentrate, and Triton® X-155 surfactant in a 48.5:39:10:1.5:1.0:0.02 v/v ratio to obtain spray solutions containing the highest application rates. Additional application rates were obtained by serial dilution of 12 mL of the high rate solution into a solution containing 2 mL of 97:3 v/v (volume/volume) mixture of acetone and dimethyl sulfoxide (DMSO) and 10 mL of an aqueous mixture containing acetone, water, isopropyl alcohol, DMSO, Atplus 411F crop oil concentrate, and Triton X-155 surfactant in a 48.5:39:10:1.5:1.0:0.02 v/v ratio to obtain 1/2X, 1/4X, 1/8X and 1/16X rates of the high rate. Compound requirements are based upon a 12 mL application volume at a rate of 187 L/ha. Formulated compounds were applied to the plant material with an overhead Mandel track sprayer equipped with a 8002E nozzles calibrated to deliver 187 L/ha over an application area of 0.503 square meters at a spray height of 18 inches (43 cm) above the average plant canopy height. Control plants were sprayed in the same manner with the solvent blank.
(§3) The treated plants and control plants were placed in a greenhouse as described above and watered by sub-irrigation to prevent wash-off of the test compounds. After 14 days, the condition of the test plants as compared with that of the untreated plants was determined visually and scored on a scale of 0 to 100 percent where 0 corresponds to no injury and 100 corresponds to complete kill.

[2] = tested on: wild poinsettia (Euphorbia heterophylla); assay: General postemergence herbicidal activity, EPHHL; details: Euphorbia heterophylla, post-emergence, 336 h, postemergence spray, visual score after 14 days, 0 = no injury, 100 = complete kill, read-out: Post-emergent Weed Control EPHHL; for pest or weed control at 280 g/ha: 280 g ai/ha; for pest or weed control at 140 g/ha: 140 g ai/ha
Method: as §1, §2, §3

rice (Oryza sativa) = assay: General postemergence herbicidal activity, ORYSA; details: Oryza sativa, post-emergence, 336 h, postemergence spray, visual score after 14 days, 0 = no injury, 100 = complete kill, read-out: Post-emergent Weed Control ORYSA; for plant injury at 280 g/ha: 280 g ai/ha; for plant injury at 140 g/ha: 140 g ai/ha
Method: as §1, §2, §3

[3] = tested on: lambsquarter (Chenopodium album); assay: General postemergence herbicidal activity, CHEAL; details: Chenopodium album, post-emergence, 336 h, postemergence spray, visual score after 14 days, 0 = no injury, 100 = complete kill, read-out: Post-emergent Weed Control CHEAL; for pest or weed control at 280 g/ha: 280 g ai/ha; for pest or weed control at 140 g/ha: 140 g ai/ha
Method: as §1, §2, §3

[4] = tested on: barnyardgrass (Echinochloa crus-galli); assay: General postemergence herbicidal activity, ECHCG; details: Echinochloa crus-galli, post-emergence, 336 h, postemergence spray, visual score after 14 days, 0 = no injury, 100 = complete kill, read-out: Post-emergent Weed Control ECHCG; for pest or weed control at 280 g/ha: 280 g ai/ha; for pest or weed control at 140 g/ha: 140 g ai/ha
Method: as §1, §2, §3

| Structure (SMILES) | pest or weed control at 280 g/ha [1] [%] | pest or weed control at 280 g/ha [2] [%] | plant injury at 280 g/ha (rice (Oryza sativa)) [%] | pest or weed control at 280 g/ha [3] [%] | pest or weed control at 280 g/ha [4] [%] | pest or weed control at 140 g/ha [1] [%] | pest or weed control at 140 g/ha [2] [%] | plant injury at 140 g/ha (rice (Oryza sativa)) [%] | pest or weed control at 140 g/ha [3] [%] | pest or weed control at 140 g/ha [4] [%] |
| --- | --- | --- | --- | --- | --- | --- | --- | --- | --- | --- |
| C=C(OCC)c1c(N)nc(-c2ccc(Cl)c(OC)c2F)nc1C(=O)OC [Compound 10, 6-Amino-2-(4-chloro-2-fluoro-3-methoxyphenyl)-5-(1-ethoxyvinyl)pyrimidine-4-carboxylic acid methyl ester] | 50 | 75 | 0 | 40 | 0 | – | – | – | – | – |
| COC(=O)c1nc(-c2ccc(Cl)c(OC)c2F)nc(N)c1C(C)=O [Compound 32, 5-Acetyl-6-amino-2-(4-chloro-2-fluoro-3-methoxyphenyl)-pyrimidine-4-carboxylic acid methyl ester] | 70 | 100 | 0 | 70 | 0 | – | – | – | – | – |
| C#Cc1c(N)cc(-c2ccc(Cl)c(OC)c2F)nc1C(=O)OC [Compound 31, 4-Amino-6-(4-chloro-2-fluoro-3-methoxyphenyl)-3-ethynyl-pyridine-2-carboxylic acid methyl ester] | – | – | – | – | – | 95 | 100 | 0 | 95 | 80 |
| C=Cc1c(N)cc(-c2ccc(Cl)cc2F)nc1C(=O)OC [Compound 29, 4-Amino-6-(4-chloro-2-fluorophenyl)-3-vinylpyridine-2-carboxylic acid methyl ester] | 85 | 75 | 10 | 85 | 0 | – | – | – | – | – |
| C=Cc1c(N)nc(-c2cc(F)c(Cl)cc2F)nc1C(=O)OC [Compound 12, 6-Amino-2-(4-chloro-2,5-difluorophenyl)-5-vinylpyrimidine-4-carboxylic acid methyl ester] | – | – | – | – | – | 100 | 50 | 0 | 100 | 50 |
| C=Cc1c(N)nc(-c2ccc(Cl)c(C(C)F)c2)nc1C(=O)OC (stereo not shown) [Compound 20, 6-Amino-2-[4-chloro-3-(1-fluoroethyl)phenyl]-5-vinylpyrimidine-4-carboxylic acid methyl ester] | 85 | 100 | 0 | 100 | 70 | – | – | – | – | – |
| C=Cc1c(C(=O)OC)nc(-c2ccc(Cl)cc2)c(F)c1N [Compound 26, 4-Amino-6-(4-chlorophenyl)-5-fluoro-3-vinylpyridine-2-carboxylic acid methyl ester] | – | – | – | – | – | 100 | 90 | 0 | 100 | 70 |
| C=Cc1c(N)nc(-c2ccc(Cl)c(F)c2)nc1C(=O)O [Compound 49, 6-Amino-2-(4-chloro-3-fluorophenyl)-5-vinylpyrimidine-4-carboxylic acid] | – | – | – | – | – | 65 | 100 | 0 | 100 | – |
| C=C(F)c1c(N)nc(-c2ccc(Cl)c(OC)c2F)nc1C(=O)OC [Compound 9, 6-Amino-2-(4-chloro-2-fluoro-3-methoxyphenyl)-5-(1-fluorovinyl) pyrimidine-4-carboxylic acid methyl ester] | – | – | – | – | – | 90 | 100 | 0 | 95 | 90 |
| C=Cc1c(N)nc(-c2ccc(Cl)c(F)c2)nc1C(=O)OC [Compound 16, 6-Amino-2-(4-chloro-3-fluorophenyl)-5-vinylpyrimidine-4-carboxylic acid methyl ester] | – | – | – | – | – | 100 | 80 | 0 | 95 | 0 |
| C#Cc1c(N)nc(-c2ccc(Cl)c(OC)c2F)nc1C(=O)O [Compound 56, 6-Amino-2-(4-chloro-2-fluoro-3-methoxyphenyl)-5-ethynylpyrimidine-4-carboxylic acid] | – | – | – | – | – | 80 | 90 | 0 | 95 | 75 |
| C=Cc1c(C(=O)O)nc(-c2ccc(Cl)cc2)c(F)c1N [Compound 61, 4-Amino-6-(4-chlorophenyl)-5-fluoro-3-vinylpyridine-2-carboxylic acid] | – | – | – | – | – | 100 | 95 | 50 | 100 | – |
| C=Cc1c(N)nc(-c2ccc(Cl)c(OC)c2Cl)nc1C(=O)OC [Compound 18, 6-Amino-2-(2,4-dichloro-3-methoxyphenyl)-5-vinylpyrimidine-4-carboxylic acid methyl ester] | – | – | – | – | – | 100 | 40 | 0 | 100 | 90 |
| C=Cc1c(N)nc(-c2ccc(Cl)c(N(C)C)c2F)nc1C(=O)OC [Compound 19, 6-Amino-2-(4-chloro-3-dimethylamino-2-fluorophenyl)-5-vinylpyrimidine-4-carboxylic acid methyl ester] | 100 | 100 | 85 | 100 | 85 | – | – | – | – | – |
| COC(=O)c1nc(-c2ccc(Cl)c(OC)c2F)cc(N)c1C=O [Compound 34, 4-Amino-6-(4-chloro-2-fluoro-3-methoxyphenyl)-3-formylpyridine-2-carboxylic acid methyl ester] | 100 | 95 | 0 | 90 | 95 | – | – | – | – | – |
| COc1c(Cl)ccc(-c2cc(N)c(C)c(C(=O)O)n2)c1F [Compound 58, 4-Amino-6-(4-chloro-2-fluoro-3-methoxyphenyl)-3-methylpyridine-2-carboxylic acid] | 90 | 90 | 0 | 50 | 50 | – | – | – | – | – |
| C=Cc1c(N)nc(-c2ccc(Cl)c(OC)c2F)nc1C(=O)OCCCC [Compound 62, 6-Amino-2-(4-chloro-2-fluoro-3-methoxyphenyl)-5-vinyl-pyrimidine-4-carboxylic acid butyl ester] | – | – | – | – | – | 100 | 100 | 25 | 100 | – |
